Several values for one entry are separate records, joined by “and”; a condition that tells them apart may be missing. Equal values may be shown once.
System: 494315-158-R-J1-PDC complex spheroid growth, percent test/control
Test: Anticancer human tumor 494315-158-R-J1-PDC patient-derived soft tissue sarcoma cell line growth inhibition [Asc]
Conditions: for viability, T/C: stronger effect = lower value; for IC50: curve of compound
Experimental: Multicellular complex tumor spheroid response to apoptosis pathway targeting inhibitors Alrizomadlin, Pelcitoclax, and Dasminapant in combination with a variety of drugs and investigational agents in selected tumor cell lines
The MDM2 inhibitor alrizomadlin, the Bcl-2/Bcl-xL inhibitor pelcitoclax, and the IAPs inhibitor dasminapant were evaluated both individually and in combination with standard of care and investigational anticancer small molecules within a complex spheroid model of solid tumors. . Complex spheroids include a stromal component modeled by human endothelial cells (HUVEC) and fibroblasts modeled by human mesenchymal stem cells (MSCs). The concentration ranges selected for each drug and investigational agent were based upon clinically achievable concentrations if the clinical Cmax of the agent was known.
Compounds. The drugs and investigational agents: alrizomadlin (APG-115; NSC831270), pelcitoclax (APG-1252; NSC835773), dasminapant (APG-1387;NSC834197), TAK-243 (NSC785004), copanlisib (NSC809693), olaparib (NSC753686), talazoparib (NSC767125), cobimetinib (NSC 768068), eltanexor (KPT-8602, NSC 794443), abemaciclib (NSC 768073), sotorasib (NSC818433), adagrasib (NSC 831453), MRTX-1133 (NSC 836407), Iadademestat (ORY1001, NSC 806812), and RMC-4630 (NSC839698), were obtained from the NCI Developmental Therapeutics Program Chemical Repository. The FDA-approved anticancer drug set is available from the Developmental Therapeutics Program at https://dtp.cancer.gov/organization/dscb/obtaining/available plates.htm. […] The stock solutions were prepared in dimethyl sulfoxide (DMSO, Sigma-Aldrich, St. Louis, MO, cat. D2650) at 800-fold the tested concentration and stored at -70 degrees C prior to their use. All drugs and investigational agents were tested over a range starting from a high concentration at or near the clinical Cmax and decreasing in half-log increments. If the clinical Cmax for an agent had not been determined, the highest concentration tested was 10 microM.
The patient-derived cancer (PDC) cell lines include five colon adenocarcinomas: 186277-243-T-J2-PDC, 616215-338-R-J1-PDC, 439559-082-T-J2-PDC, 463943-066-T-J2-PDC, and 519858-162-T-J1-PDC; three pancreatic carcinomas: 323965-272-R-J2-PDC, 521955-158-R6-J3-PDC, and 521955-158-R2-J5-PDC; two uterine sarcomas: 327498-152-R-J2-PDC and 993429-296-R-J1-PDC; two rhabdomyosarcomas: 755483-174-R-J1-PDC and 772245-204-R-J1-PDC; two soft tissue sarcomas: 126254-015-R-J1-PDC and 494315-158-R-J1-PDC; two malignant fibrous histiocytomas: 317291-083-R-J1-PDC and 596521-263-R-J1-PDC; two breast carcinomas: 171881-019-R-J1-PDC and 885512-296-R-J2-PDC; and one ovarian carcinoma: 6556581-035-R-J-PDC were obtained from the NCI PDMR, (https://pdmr.cancer.gov). The established cell lines HSSY-2 synovial sarcoma (RRID:CVCL 8719), SYO-1 synovial sarcoma (RRID:CVCL_7146), MPNST malignant peripheral neural sheath tumor were obtained from the Sloan Kettering Institute. The following established cell lines were purchased from the American Type Culture Collection (ATCC, Manassas, VA), Sor the received from the NCI repository:, PANC-1 pancreatic carcinoma (CRL-1469, RRID:CVCL_0480), OVCAR-5 ovarian carcinoma (RRID:CVCL_1628), OVCAR-8 ovarian carcinoma (RRID:CVCL_1629), , MCF-7 breast carcinoma (CRL-12584, RRID:CVCL_0031), MDA-MB-231 breast carcinoma (CRL-12532, RRID:CVCL_0062), NCI-H1876 small cell lung carcinoma (CRL-5902, RRID:CVCL_1503), NCI-H510A small cell lung carcinoma (HTB-184, RRID:CVCL_1565), NCI-H1417 (CRL-5869, RRID:CVCL_1469), and NCI-H196 small cell lung carcinoma (CRL-5823, RRID:CVCL_1509). Dr. Peter Houghton (Greehey Children's Cancer Research Institute, University of Texas Health Science Center, San Antonio, TX) provided Rh-18 rhabdomyosarcoma (RRID:CVCL_1659). Pooled donor human umbilical vein endothelial cells (HUVEC, Lonza, cat. CC-2519) and human mesenchymal stem cells (hMSC, Lonza, cat. PT-2501) were purchased from Lonza (Walkersville, MD).
Cell Culture. […]
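Also: compound exposure lasted seven days after spheroids formed for three days.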

IC50 | SMILES | viability, T/C (compound 0.00949 µM) | viability, T/C (compound 0.03 µM) | viability, T/C (compound 0.0949 µM) | viability, T/C (compound 0.3 µM) | viability, T/C (compound 0.949 µM) | viability, T/C (compound 3 µM) | viability, T/C (compound 0.0316 µM) | viability, T/C (compound 0.1 µM) | viability, T/C (compound 0.316 µM) | viability, T/C (compound 1 µM) | viability, T/C (compound 3.16 µM) | viability, T/C (compound 10 µM)
> 3 µM and 1.52 µM and 1.8 µM | Cc1nc(N2CCC3(CC2)COC(C)C3N)c(CO)nc1Sc1ccnc(N)c1Cl (stereo unspecified) | 105% and 96.7% and 89% | 92.1% and 86.9% and 81.2% | 85.7% and 86% and 78.7% | 92% and 75.2% and 66.9% | 71.2% and 54.1% and 58.9% | 54.9% and 42.4% and 43.2% |  |  |  |  |  | 
3.95 µM and 3.36 µM and 4.31 µM | C=C(F)C(=O)N1CCN(c2nc(OCC3CCCN3C)nc3c2CCN(c2cccc4cccc(Cl)c24)C3)CC1CC#N (stereo unspecified) |  |  |  |  |  |  | 89.2% and 99.6% and 84.3% | 92.5% and 97.5% and 96.5% | 88.7% and 82.5% and 97.6% | 84.9% and 84.5% and 86.7% | 62% and 51.7% and 68.6% | 0.23% and 0.25% and 0.24%
> 10 µM | C#Cc1c(F)ccc2cc(O)cc(-c3ncc4c(N5CC6CCC(C5)N6)nc(OCC56CCCN5CC(F)C6)nc4c3F)c12 (stereo unspecified) |  |  |  |  |  |  | 107% and 98.9% and 87.7% | 109% and 102% and 108% | 107% and 98.4% and 99.9% | 107% and 104% and 95.3% | 120% and 97.1% and 100% | 103% and 86.4% and 91.4%

Reference: PubChem BioAssay AID1963420 (Molecular Pharmacology Branch, DTP, NCI, 2024)
